Laboratory results reported in ChEMBL document CHEMBL3779828, “Discovery of the Aryl-phospho-indole IDX899, a Highly Potent Anti-HIV Non-nucleoside Reverse Transcriptase Inhibitor” (J Med Chem, 2016).
≈ marks a conversion by molar mass, not a printed value.

What was measured:
[1] = system: Human immunodeficiency virus 1; assay: Antiviral activity against HIV1 harboring reverse transcriptase Y181C mutant infected in primary MT4 cells assessed as inhibition of virus-induced cytopathogenicity after 4 days by MTS assay; type: functional, organism-based; conditions: Human immunodeficiency virus 1, MT4, 96 h
[2] = system: Human immunodeficiency virus 1; assay: Antiviral activity against HIV1 harboring reverse transcriptase K103N mutant infected in primary MT4 cells assessed as inhibition of virus-induced cytopathogenicity after 4 days by MTS assay; type: functional, organism-based; conditions: Human immunodeficiency virus 1, MT4, 96 h
[3] = Antiviral activity against HIV1 BH10 harboring wild type reverse transcriptase infected in primary MT4 cells assessed as inhibition of virus-induced cytopathogenicity after 4 days by MTS assay; type: functional, cell-based, Human immunodeficiency virus type 1 BH10; conditions: Human immunodeficiency virus 1, MT4, 96 h
[4] = system: Human immunodeficiency virus 1; assay: Antiviral activity against HIV1 harboring reverse transcriptase Y181C/K103N double mutant infected in primary MT4 cells assessed as inhibition of virus-induced cytopathogenicity after 4 days by MTS assay; type: functional, organism-based; conditions: Human immunodeficiency virus 1, MT4, 96 h
[5] = Selectivity ratio of EC50 for HIV1 harboring reverse transcriptase Y181C/K103N double mutant to EC50 for HIV1 BH10 harboring wild type reverse transcriptase; type: functional
[6] = Aqueous solubility of the compound at pH 7; type: physicochemical; conditions: aqueous medium

SMILES: COP(=O)(c1cccc(-n2cccn2)c1)c1c(C(N)=O)[nH]c2ccc(Cl)cc12 (stereo not given)
- EC50 [1]: 59 nM
- EC50 [2]: 102 nM
- EC50 [3]: 4.5 nM
- EC50 [4]: > 1000 nM

SMILES: COP(=O)(c1cc(C)cc(Br)c1)c1c(C(N)=O)[nH]c2ccc(Cl)cc12 (stereo not given)
- EC50 [1]: 6 nM
- EC50 [2]: 25 nM
- EC50 [3]: 3 nM
- EC50 [4]: 368 nM

SMILES: COP(=O)(c1cccs1)c1c(C(N)=O)[nH]c2ccc(Cl)cc12 (stereo not given)
- EC50 [1]: 3.4 nM
- EC50 [2]: 8.6 nM
- EC50 [3]: 0.3 nM
- EC50 [4]: > 1000 nM

SMILES: COc1cc(C)cc(P(=O)(OC)c2c(C(N)=O)[nH]c3ccc(Cl)cc23)c1 (stereo not given)
- EC50 [1]: 9 nM
- EC50 [2]: 23 nM
- EC50 [3]: 0.4 nM
- EC50 [4]: 663 nM

SMILES: COP(=O)(c1cc(F)cc(F)c1)c1c(C(N)=O)[nH]c2ccc(Cl)cc12 (stereo not given)
- EC50 [1]: 6.5 nM
- EC50 [2]: 25.5 nM
- EC50 [3]: 0.7 nM
- EC50 [4]: 642 nM

SMILES: COP(=O)(c1cccc2ccccc12)c1c(C(N)=O)[nH]c2ccc(Cl)cc12 (stereo not given)
- EC50 [1]: 357 nM
- EC50 [2]: 727 nM
- EC50 [3]: 17.5 nM
- EC50 [4]: > 1000 nM

SMILES: COP(=O)(c1cc(C)cc(CCC#N)c1)c1c(C(N)=O)[nH]c2ccc(Cl)cc12 (stereo not given)
- EC50 [1]: 0.7 nM
- EC50 [2]: 3.5 nM
- EC50 [3]: 0.7 nM
- EC50 [4]: 28.5 nM

SMILES: COP(=O)(c1cc(C)cc(OCC#N)c1)c1c(C(N)=O)[nH]c2ccc(Cl)cc12 (stereo not given)
- Ratio EC50 [5]: > 1000
- EC50 [1]: 8.7 nM
- EC50 [2]: 1.8 nM
- EC50 [3]: 0.08 nM
- EC50 [4]: 111 nM

SMILES: COP(=O)(c1cc(C)cc(/C=C/C#N)c1)c1c(C(N)=O)[nH]c2ccc(Cl)cc12 (single isomer, unassigned; form 2)
- EC50 [1]: 377 nM
- EC50 [2]: 824 nM
- EC50 [3]: 190 nM
- EC50 [4]: > 1250 nM

SMILES: COP(=O)(c1ccc(C)c(C)c1)c1c(C(N)=O)[nH]c2ccc(Cl)cc12 (stereo not given)
- EC50 [1]: 22.9 nM
- EC50 [2]: 35 nM
- EC50 [3]: 0.2 nM
- EC50 [4]: 792 nM

SMILES: COP(=O)(c1cc(C(F)(F)F)cc(C(F)(F)F)c1)c1c(C(N)=O)[nH]c2ccc(Cl)cc12 (stereo not given)
- EC50 [1]: 527 nM
- EC50 [2]: 947 nM
- EC50 [3]: 24.6 nM
- EC50 [4]: > 1000 nM

SMILES: COP(=O)(c1cccc(C(C)C)c1)c1c(C(N)=O)[nH]c2ccc(Cl)cc12 (stereo not given)
- solubility [6]: 0.8 µM (≈ 0.313 µg/mL)
- EC50 [1]: 8.4 nM
- EC50 [2]: 1.6 nM
- EC50 [3]: 0.5 nM
- EC50 [4]: 92.6 nM
